Patent US11505527B1, “Tetrahydroquinoline derivatives and a process of preparation thereof” (King Abdulaziz University, priority 2022, dated 2022)
Where two headings read alike, the source gives them in different places.

Columns and labels:
[1] = test system: human breast cancer MCF-7 cell line; assay: MTT cell viability assay against MCF-7 cells; format: cell-based; details: vs standard drug staurosporine
Procedure: (§1) For this purpose, cells suspended in the medium (2×10^4 cells/mL) were plated in 96-well culture plates and incubated at 37° C. in a 5% CO2 incubator. After 12 h, the test sample ([…]) was added to the cells (2×10^4) in 96-well plates and cultured at 37° C. for 3 days. The cultured cells were mixed with 20 μL (microlitre) of MTT solution and incubated for 4 h at 37° C. The supernatant was carefully removed from each well and […] of DMSO were added to each well to dissolve the formazan crystals which were formed by the cellular reduction of MTT. After mixing with a mechanical plate mixer, the absorbance of each well was measured by a microplate reader using a test wavelength of 570 nm (nanometers). […] Each experiment was performed at least 3 times.

normal WI38 cells = assay: MTT assay against normal WI38 cells (safety profile); format: cell-based; details: for IC50 against WI38 cells, fold higher than IC50 against MCF-7 cancer cells: WI38 vs MCF-7; for IC50 against WI38 cells relative to IC50 of staurosporine: vs reference drug staurosporine
Procedure: as §1
One of the features that differentiates various antiproliferative therapeutic agents from each other is the recurrence and severity of their side effects to the normal cells at their therapeutic doses. Accordingly, the safety profile of the most promising candidates (4b, 4j, 4k, and 4e) was evaluated against the normal WI38 cells derived from lung tissues using MTT assay.

EGFR = EGFR (Homo sapiens (Human), UniProt P00533); assay: In vitro kinase inhibition assay, EGFR (Abcam Human In cell ELISA Kit); format: biochemical
From the text: (§2) RTK's play essential roles in regulation of cell proliferation, differentiation, survival and apoptosis. Aberrant expression of RTK results in cell growth dysfunction leading to tumor takeover, angiogenesis, and metastasis. They also produce their actions in a synergistic pattern in regulating tumor response to different anticancer RTK inhibitor drug therapies. […] The procedure of the used kits was done according to the manufacturer's instructions.

HER-2 = HER-2 (Homo sapiens (Human), UniProt P04626); assay: In vitro kinase inhibition assay, HER2 (ADP-Glo Kinase Assay); format: biochemical
From the text: as §2

PDGFR-β = PDGFR-β (Homo sapiens (Human), UniProt P09619); assay: In vitro kinase inhibition assay, PDGFR-β; format: biochemical
From the text: as §2

VEGFR-2 = VEGFR-2 (Homo sapiens (Human), UniProt P35968); assay: In vitro kinase inhibition assay, VEGFR2 (KDR) Kinase Assay Kit; format: biochemical; details: for VEGFR-2 inhibitory effect, fold less than Sorafenib: vs Sorafenib
From the text: as §2

MCF-7 cancer cells = assay: Annexin-V/PI apoptosis assay, flow cytometry; format: cell-based, human; details: MCF-7, compound at IC50 concentration, 24 h; control 0.66%
From the text: Flow cytometry method has been used to detect the corresponding red (PI) and green (FITC) fluorescence.
The induction of apoptosis is one of the most crucial tools that confirm the effectiveness of cancer therapy. Cell cycle checkpoints are G1 (restriction or start), S ([…]), and G2/M. One of the main functions of the anticancer therapeutics is stoppage of the cell division at these checkpoints. […] The cells were stained with Annexin V/PI and examined using flow cytometry procedure. For cell cycle analysis, cell pellets were fixed with 70% ethanol on ice for 15 min. and collected again. The collected pellets were incubated with propidium iodide (PI) staining solution ([…] PI, 0.1 mg/mL RNaseA, 0.05% Triton X-100) at room temperature for 1 hand analyzed by Gallios flow cytometer (Beckman Coulter, Brea, CA, USA). Apoptosis detection was performed by FITC Annexin V/PI commercial kit (Becton Dickenson, Franklin Lakes, N.J., USA) following the manufacture protocol. The samples were analyzed by fluorescence-activated cell sorting (FACS) with a Gallios flow cytometer (Beckman Coulter, Brea, Calif., USA) within 1 h after staining Data were analyzed using Kaluzav 1.2 (Beckman Coulter).

[2] = unit mM, read-out: EGFR IC50 (converted)

PDGFR-β, sequence (P09619 33-1106, species assumed): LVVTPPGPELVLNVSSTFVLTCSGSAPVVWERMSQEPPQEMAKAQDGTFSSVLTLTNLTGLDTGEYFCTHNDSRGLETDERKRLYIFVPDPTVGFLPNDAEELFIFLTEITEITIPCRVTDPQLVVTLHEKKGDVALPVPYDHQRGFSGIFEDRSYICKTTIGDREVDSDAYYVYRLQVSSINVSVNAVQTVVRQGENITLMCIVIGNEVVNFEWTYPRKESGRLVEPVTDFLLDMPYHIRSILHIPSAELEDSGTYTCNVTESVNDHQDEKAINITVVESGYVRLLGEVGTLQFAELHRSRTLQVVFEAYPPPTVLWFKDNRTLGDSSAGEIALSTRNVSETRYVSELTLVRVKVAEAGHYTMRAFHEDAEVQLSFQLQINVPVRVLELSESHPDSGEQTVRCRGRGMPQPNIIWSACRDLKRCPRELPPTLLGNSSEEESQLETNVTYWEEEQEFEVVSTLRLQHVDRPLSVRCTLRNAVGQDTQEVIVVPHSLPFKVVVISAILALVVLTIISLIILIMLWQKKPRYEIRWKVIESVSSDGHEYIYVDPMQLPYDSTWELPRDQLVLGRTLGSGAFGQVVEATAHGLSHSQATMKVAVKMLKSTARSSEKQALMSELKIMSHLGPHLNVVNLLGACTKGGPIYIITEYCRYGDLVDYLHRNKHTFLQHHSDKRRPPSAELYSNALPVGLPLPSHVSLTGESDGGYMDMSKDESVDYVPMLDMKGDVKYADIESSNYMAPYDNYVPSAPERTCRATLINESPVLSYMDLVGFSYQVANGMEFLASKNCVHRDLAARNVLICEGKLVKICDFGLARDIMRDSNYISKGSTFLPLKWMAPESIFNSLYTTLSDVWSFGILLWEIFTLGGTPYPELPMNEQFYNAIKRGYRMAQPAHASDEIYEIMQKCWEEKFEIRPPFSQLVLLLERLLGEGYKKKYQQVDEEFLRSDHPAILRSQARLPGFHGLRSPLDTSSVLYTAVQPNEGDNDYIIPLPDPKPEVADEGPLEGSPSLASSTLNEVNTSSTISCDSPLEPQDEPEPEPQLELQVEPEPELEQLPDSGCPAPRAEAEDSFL
HER-2, sequence (P04626 23-1255): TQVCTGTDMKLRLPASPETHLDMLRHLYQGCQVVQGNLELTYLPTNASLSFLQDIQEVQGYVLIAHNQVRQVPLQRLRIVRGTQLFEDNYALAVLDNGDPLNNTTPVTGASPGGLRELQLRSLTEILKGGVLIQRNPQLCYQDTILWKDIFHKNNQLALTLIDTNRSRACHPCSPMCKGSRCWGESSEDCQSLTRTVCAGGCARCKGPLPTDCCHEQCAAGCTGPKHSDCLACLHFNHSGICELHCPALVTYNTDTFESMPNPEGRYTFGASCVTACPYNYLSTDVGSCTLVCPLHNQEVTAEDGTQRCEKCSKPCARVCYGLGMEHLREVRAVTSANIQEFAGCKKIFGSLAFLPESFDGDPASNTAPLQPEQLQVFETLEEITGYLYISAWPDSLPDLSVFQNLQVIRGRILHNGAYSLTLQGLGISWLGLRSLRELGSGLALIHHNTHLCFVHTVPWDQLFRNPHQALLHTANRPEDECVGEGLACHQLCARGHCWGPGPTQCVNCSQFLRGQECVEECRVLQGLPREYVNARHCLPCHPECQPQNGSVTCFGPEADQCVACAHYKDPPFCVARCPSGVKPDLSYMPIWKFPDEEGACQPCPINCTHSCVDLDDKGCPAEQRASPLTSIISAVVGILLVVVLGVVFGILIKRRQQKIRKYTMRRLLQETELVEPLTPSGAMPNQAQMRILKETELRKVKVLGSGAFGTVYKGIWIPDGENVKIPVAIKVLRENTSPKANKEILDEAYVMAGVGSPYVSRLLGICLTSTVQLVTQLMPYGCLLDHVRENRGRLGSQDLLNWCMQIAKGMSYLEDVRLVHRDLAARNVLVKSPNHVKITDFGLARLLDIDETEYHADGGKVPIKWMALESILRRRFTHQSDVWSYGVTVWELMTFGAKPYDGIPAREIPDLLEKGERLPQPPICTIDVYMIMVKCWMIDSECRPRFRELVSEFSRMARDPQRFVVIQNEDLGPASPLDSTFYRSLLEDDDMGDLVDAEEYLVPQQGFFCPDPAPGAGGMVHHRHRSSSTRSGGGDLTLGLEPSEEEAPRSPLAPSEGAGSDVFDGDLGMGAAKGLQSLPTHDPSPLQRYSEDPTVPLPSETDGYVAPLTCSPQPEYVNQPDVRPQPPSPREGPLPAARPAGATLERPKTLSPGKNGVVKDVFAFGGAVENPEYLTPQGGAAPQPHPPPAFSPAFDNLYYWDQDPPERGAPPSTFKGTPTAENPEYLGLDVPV
VEGFR-2, sequence (P35968 20-1356): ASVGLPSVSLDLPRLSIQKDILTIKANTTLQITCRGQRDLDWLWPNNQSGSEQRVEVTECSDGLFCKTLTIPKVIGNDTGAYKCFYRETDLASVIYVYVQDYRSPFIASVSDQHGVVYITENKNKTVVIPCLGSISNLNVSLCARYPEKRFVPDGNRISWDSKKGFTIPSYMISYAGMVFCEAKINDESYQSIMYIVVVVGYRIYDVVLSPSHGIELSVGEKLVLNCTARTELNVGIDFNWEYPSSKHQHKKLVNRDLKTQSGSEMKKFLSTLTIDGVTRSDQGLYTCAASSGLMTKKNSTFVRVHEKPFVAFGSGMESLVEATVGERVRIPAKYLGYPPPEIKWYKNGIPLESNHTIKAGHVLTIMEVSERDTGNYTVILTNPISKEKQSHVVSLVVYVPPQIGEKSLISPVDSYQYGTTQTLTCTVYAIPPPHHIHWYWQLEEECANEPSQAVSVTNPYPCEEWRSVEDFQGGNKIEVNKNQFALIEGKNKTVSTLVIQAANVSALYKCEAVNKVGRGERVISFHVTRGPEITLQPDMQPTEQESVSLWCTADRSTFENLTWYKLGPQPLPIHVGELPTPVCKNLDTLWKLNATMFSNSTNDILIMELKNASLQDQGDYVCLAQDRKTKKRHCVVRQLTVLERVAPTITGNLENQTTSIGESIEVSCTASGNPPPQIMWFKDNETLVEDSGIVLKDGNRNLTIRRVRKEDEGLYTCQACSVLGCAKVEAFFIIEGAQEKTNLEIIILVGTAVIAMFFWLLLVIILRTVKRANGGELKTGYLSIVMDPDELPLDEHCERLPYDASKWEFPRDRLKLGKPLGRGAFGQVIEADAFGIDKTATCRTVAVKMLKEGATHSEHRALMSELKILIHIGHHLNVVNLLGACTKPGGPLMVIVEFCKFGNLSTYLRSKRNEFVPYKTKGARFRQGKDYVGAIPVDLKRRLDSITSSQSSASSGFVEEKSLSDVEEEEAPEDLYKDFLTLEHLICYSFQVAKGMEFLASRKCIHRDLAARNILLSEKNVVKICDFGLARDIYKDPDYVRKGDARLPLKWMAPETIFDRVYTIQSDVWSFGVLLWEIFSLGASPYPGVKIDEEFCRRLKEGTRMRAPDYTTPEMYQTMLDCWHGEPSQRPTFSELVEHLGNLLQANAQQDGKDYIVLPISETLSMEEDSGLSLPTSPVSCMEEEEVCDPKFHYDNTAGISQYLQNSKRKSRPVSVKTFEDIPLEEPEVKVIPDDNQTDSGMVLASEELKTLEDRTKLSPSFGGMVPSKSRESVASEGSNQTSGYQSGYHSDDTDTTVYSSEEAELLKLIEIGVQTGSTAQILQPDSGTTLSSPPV
EGFR, sequence (P00533 25-1210): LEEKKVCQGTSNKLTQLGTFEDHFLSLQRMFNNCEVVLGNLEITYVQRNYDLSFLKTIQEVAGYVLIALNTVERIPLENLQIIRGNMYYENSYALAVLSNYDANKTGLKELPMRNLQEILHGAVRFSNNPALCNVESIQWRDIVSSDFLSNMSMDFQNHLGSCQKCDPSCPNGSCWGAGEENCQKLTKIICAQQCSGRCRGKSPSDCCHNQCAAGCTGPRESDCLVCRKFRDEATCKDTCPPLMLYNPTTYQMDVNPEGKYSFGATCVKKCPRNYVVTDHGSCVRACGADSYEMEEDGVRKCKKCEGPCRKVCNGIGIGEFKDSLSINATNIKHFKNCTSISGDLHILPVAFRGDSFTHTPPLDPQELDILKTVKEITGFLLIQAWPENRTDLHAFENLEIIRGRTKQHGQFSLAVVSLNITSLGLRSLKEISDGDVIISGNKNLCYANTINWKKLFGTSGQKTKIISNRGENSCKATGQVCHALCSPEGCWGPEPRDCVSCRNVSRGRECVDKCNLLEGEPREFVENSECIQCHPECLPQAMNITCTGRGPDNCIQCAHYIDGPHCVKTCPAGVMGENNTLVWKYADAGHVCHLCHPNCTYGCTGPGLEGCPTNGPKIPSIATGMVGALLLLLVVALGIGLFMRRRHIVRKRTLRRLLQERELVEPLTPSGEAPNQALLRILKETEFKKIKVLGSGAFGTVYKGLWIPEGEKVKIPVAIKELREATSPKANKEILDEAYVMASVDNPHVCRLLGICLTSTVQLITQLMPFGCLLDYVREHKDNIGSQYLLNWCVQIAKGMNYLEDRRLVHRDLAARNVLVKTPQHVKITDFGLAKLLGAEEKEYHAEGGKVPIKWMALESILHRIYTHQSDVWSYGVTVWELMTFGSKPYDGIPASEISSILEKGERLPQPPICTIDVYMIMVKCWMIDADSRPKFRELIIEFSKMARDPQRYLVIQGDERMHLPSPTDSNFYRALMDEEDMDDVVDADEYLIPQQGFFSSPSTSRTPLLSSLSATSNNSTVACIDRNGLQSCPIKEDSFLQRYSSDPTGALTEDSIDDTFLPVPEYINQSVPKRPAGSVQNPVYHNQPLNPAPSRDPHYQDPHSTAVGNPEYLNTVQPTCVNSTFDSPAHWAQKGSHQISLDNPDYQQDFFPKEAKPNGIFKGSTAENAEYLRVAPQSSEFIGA

In the case of CCOC(=O)C1=C(C(F)(F)F)NC2=C(C(=O)CC(C)(C)C2)C1c1ccc(S(=O)(=O)c2ccccc2)cc1 (stereo not shown) [Compound 4b, ethyl 7,7-dimethyl-5-oxo-4-(4-(phenylsulfonyl)phenyl)-2-(trifluoromethyl)-1,4,5,6,7,8-hexahydroquinoline-3-carboxylate], the “fold more potent activity than staurosporine (MCF-7)” value [1] is reported as “about 2.5 fold”, the “IC50 against WI38 cells, fold higher than IC50 against MCF-7 cancer cells” value (normal WI38 cells) is reported as 24 fold and the “IC50 against WI38 cells relative to IC50 of staurosporine” value (normal WI38 cells) is reported as “about 3 fold”. For the same molecule, the IC50 (EGFR; [2]) was 110 nM, the IC50 (HER-2; Table 4, read-out: HER-2 IC50 (converted)) was 0.562 nM and the IC50 (PDGFR-β; Table 4) was 0.394 nM. The IC50 (VEGFR-2; Table 4) was 1.97 nM and the “VEGFR-2 inhibitory effect, fold less than Sorafenib” value (VEGFR-2) was “about 6.2 fold”.
CC1(C)CC(=O)C2=C(C1)NC(N)=C(C(=O)c1ccccc1)C2c1ccc(S(=O)(=O)c2ccccc2)cc1 (stereo not shown) [Compound 4d, 2-amino-3-benzoyl-7,7-dimethyl-4-(4-(phenylsulfonyl)phenyl)-4,6,7,8-tetrahydroquinolin-5(1H)-one] was tested, and the “fold less potent than the standard drug staurosporine (MCF-7)” value [1] was 1.4 fold.
For Cc1ccc(C(=O)C2=C(N)NC3=C(C(=O)CC(C)(C)C3)C2c2ccc(S(=O)(=O)c3ccccc3)cc2)cc1 (stereo not shown) [Compound 4e, 2-amino-7,7-dimethyl-3-(4-methylbenzoyl)-4-(4-(phenylsulfonyl)phenyl)-4,6,7,8-tetrahydroquinolin-5(1H)-one], the “fold more potent activity than staurosporine (MCF-7)” value [1] was 1-1.6 fold, the “IC50 against WI38 cells, fold higher than IC50 against MCF-7 cancer cells” value (normal WI38 cells) was 4 fold and the “IC50 against WI38 cells relative to IC50 of staurosporine” value (normal WI38 cells) was “approximately equal”.
Cc1ccc(S(=O)(=O)c2ccc(C3C(C(=O)c4ccccc4)=C(N)NC4=C3C(=O)CC(C)(C)C4)cc2)cc1 (stereo not shown) [Compound 4j, 2-amino-3-benzoyl-7,7-dimethyl-4-(4-tosylphenyl)-4,6,7,8-tetrahydroquinolin-5(1H)-one] was tested, and the “fold more potent activity than staurosporine (MCF-7)” value [1] was 1-1.6 fold, the “IC50 against WI38 cells, fold higher than IC50 against MCF-7 cancer cells” value (normal WI38 cells) was 20 fold and the “IC50 against WI38 cells relative to IC50 of staurosporine” value (normal WI38 cells) was “about 3 fold”. The IC50 (EGFR; EGFR IC50, Table 4, heading: EGFR IC50) was 70 ± 20 nM, the IC50 (EGFR; differs from Table 4, read-out: EGFR IC50 (converted)) was 77.4 nM and the IC50 (EGFR; [2]) was 70 nM. It also gave an IC50 (HER-2; Table 4, heading: HER-2 IC50, read-out: HER-2 IC50 (converted)) of 170 ± 20 nM, an IC50 (HER-2; differs from Table 4, read-out: HER-2 IC50 (converted)) of 171 nM and an IC50 (HER-2; unit mM, read-out: HER-2 IC50 as restated in text) of 170 nM. The “PDGFR-β inhibition, fold more than reference sorafenib” value (PDGFR-β) was 0.7 fold, the IC50 (PDGFR-β; Table 4) was 0.133 nM and the IC50 (PDGFR-β; differs from Table 4) was 81.6 nM. The “PDGFR-a inhibition, fold more than reference sorafenib” value (PDGFR-β; text b141 prints PDGFR-a) was 1.9 fold, the IC50 (VEGFR-2; Table 4) was 0.57 nM and the IC50 (VEGFR-2; differs from Table 4) was 304 nM. The “VEGFR-2 inhibitory effect, fold less than Sorafenib” value (VEGFR-2) was roughly 1.8 fold and the necrosis percent (MCF-7 cancer cells) was 4.2%.
With Cc1ccc(C(=O)C2=C(N)NC3=C(C(=O)CC(C)(C)C3)C2c2ccc(S(=O)(=O)c3ccc(C)cc3)cc2)cc1 (stereo not shown) [Compound 4k, 2-amino-7,7-dimethyl-3-(4-methylbenzoyl)-4-(4-tosylphenyl)-4,6,7,8-tetrahydroquinolin-5(1H)-one] the “fold more potent activity than staurosporine (MCF-7)” value [1] was 1-1.6 fold, the “IC50 against WI38 cells, fold higher than IC50 against MCF-7 cancer cells” value (normal WI38 cells) was 4 fold and the “IC50 against WI38 cells relative to IC50 of staurosporine” value (normal WI38 cells) was “approximately equal”.
For Cc1ccc(S(=O)(=O)c2ccc(C3C(C(=O)c4ccc(Br)cc4)=C(N)NC4=C3C(=O)CC(C)(C)C4)cc2)cc1 (stereo not shown) [Compound 4l, 2-amino-3-(4-bromobenzoyl)-7,7-dimethyl-4-(4-tosylphenyl)-4,6,7,8-tetrahydroquinolin-5(1H)-one], the “fold less potent than the standard drug staurosporine (MCF-7)” value [1] was 1.4 fold.
In the case of CN[C@@H]1C[C@H]2O[C@@](C)([C@@H]1OC)n1c3ccccc3c3c4c(c5c6ccccc6n2c5c31)C(=O)NC4 [Staurosporine, reference compound], the IC50 (normal WI38 cells; MTT, normal lung-derived cells) is reported as 13 ± 2 nM.
